These results are taken from publication PMC4506520, “Aneuploidy generates proteotoxic stress and DNA damage concurrently with p53-mediated post-mitotic apoptosis in SAC-impaired cells” (Nature Communications, 2015).

The target in this assay is T1, CENP-E (Homo sapiens, UniProt Q02224).
T1 construct: gene CENPE; motor domain
T1 sequence (Q02224 6-329 limits assumed): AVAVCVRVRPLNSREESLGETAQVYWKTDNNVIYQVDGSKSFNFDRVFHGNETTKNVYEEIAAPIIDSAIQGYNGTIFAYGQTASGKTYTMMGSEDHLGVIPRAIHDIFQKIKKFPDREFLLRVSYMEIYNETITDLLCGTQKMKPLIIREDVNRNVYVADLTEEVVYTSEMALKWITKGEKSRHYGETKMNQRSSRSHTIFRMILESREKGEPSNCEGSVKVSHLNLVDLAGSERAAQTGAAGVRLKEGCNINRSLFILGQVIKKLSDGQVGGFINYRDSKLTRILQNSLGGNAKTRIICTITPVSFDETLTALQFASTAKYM
As to the kind of experiment: ATPase activity assay of the CENP-E motor domain. It is filed as biochemical.

On to `COc1cccc2nc(C(=O)N(CCN(C)C)C3CS(=O)(=O)c4c3ccc(C(F)(F)F)c4C#N)c(-c3ccc(F)c(C)c3)n12` (single isomer, unassigned; (+)) [Cmpd-A, (+)-N-[7-cyano-1,1-dioxido-6-(trifluoromethyl)-2,3-dihydro-1-benzothiophen-3-yl]-N-[2-(dimethylamino)ethyl]-3-(4-fluoro-3-methylphenyl)-5-methoxyimidazo[1,2-a]pyridine-2-carboxamide], for which 2.2 nM corresponded to half-maximal inhibition (IC50).

By IC50 is commonly meant the concentration that gives 50% inhibition. High values mean weaker potency in that assay, low ones greater potency in that assay.
